In patent US20140243375A1, “ISOXAZOLINE DERIVATIVES AS INSECTICIDAL COMPOUNDS” (Syngenta Participations AG, priority 2011, published 2014):

Tests used:
Assay type in all cases: in vivo
[1] = tested on: Spodoptera littoralis; experiment: Spodoptera littoralis (Egyptian cotton leafworm) cotton leaf disc spray test; settings: foliar, 72 h, application rate 200 ppm, sprayed cotton leaf discs, mortality, feeding behavior, growth regulation 3 days after treatment
Experimental: This Example illustrates the pesticidal/insecticidal properties of compounds of formula (I). Tests were performed as follows: Spodoptera littoralis (Egyptian Cotton Leafworm): Cotton leaf discs were placed on agar in a 24-well microtiter plate and sprayed with test solutions at an application rate of 200 ppm. After drying, the leaf discs were infested with […]. The samples were checked for mortality, feeding behavior, and growth regulation 3 days after treatment (DAT).

[2] = tested on: Heliothis virescens; experiment: Heliothis virescens (tobacco budworm) egg test on artificial diet; settings: 96 h, application rate 200 ppm (concentration in well 18 ppm), eggs on artificial diet, egg mortality, larval mortality, growth regulation after 4 days
Experimental: This Example illustrates the pesticidal/insecticidal properties of compounds of formula (I). Tests were performed as follows: Heliothis virescens (Tobacco Budworm): Eggs (0-24 h old) were placed in 24-well microtiter plate on artificial diet and treated with test solutions at an application rate of 200 ppm (concentration in well 18 ppm) by pipetting. After an incubation period of 4 days, samples were checked for egg mortality, larval mortality, and growth regulation.

[3] = tested on: Plutella xylostella; experiment: Plutella xylostella (diamond back moth) L2 larvae test on artificial diet; settings: 144 h, application rate 200 ppm (concentration in well 18 ppm), larval mortality and growth regulation after 6 days
Experimental: (§1) This Example illustrates the pesticidal/insecticidal properties of compounds of formula (I). Tests were performed as follows: Plutella xylostella (Diamond Back Moth): 24-well microtiter plate (MTP) with artificial diet was treated with test solutions at an application rate of 200 ppm (concentration in well 18 ppm) by pipetting. After drying, the MTP's were infested with L2 larvae (7-12 per well). After an incubation period of 6 days, samples were checked for larval mortality and growth regulation.

[4] = tested on: Diabrotica balteata; experiment: Diabrotica balteata (corn root worm) L2 larvae test on artificial diet; settings: 120 h, application rate 200 ppm (concentration in well 18 ppm), larval mortality and growth regulation after 5 days
Experimental: as §1, with “Diabrotica balteata (Corn Root Worm): A” for “Plutella xylostella (Diamond Back Moth):”, “(6-10” for “(7-12”, “5” for “6”

[5] = tested on: Thrips tabaci; experiment: Thrips tabaci (onion thrips) sunflower leaf disc spray test; settings: foliar, 168 h, application rate 200 ppm, sprayed sunflower leaf discs, mixed ages, mortality after 7 days
Experimental: This Example illustrates the pesticidal/insecticidal properties of compounds of formula (I). Tests were performed as follows: Thrips Tabaci (Onion Thrips): Sunflower leaf discs were placed on agar in a 24-well microtiter plate and sprayed with test solutions at an application rate of 200 ppm. After drying, the leaf discs were infested with a thrips population of mixed ages. After an incubation period of 7 days, samples were checked for mortality.

[6] = tested on: Tetranychus urticae; experiment: Tetranychus urticae (two-spotted spider mite) bean leaf disc spray test; settings: foliar, 192 h, application rate 200 ppm, sprayed bean leaf discs, mixed ages, egg, larval and adult mortality 8 days later
Experimental: This Example illustrates the pesticidal/insecticidal properties of compounds of formula (I). Tests were performed as follows: Tetranychus urticae (Two-Spotted Spider Mite): Bean leaf discs on agar in 24-well microtiter plates were sprayed with test solutions at an application rate of 200 ppm. After drying, the leaf discs are infested with mite populations of mixed ages. 8 days later, discs are checked for egg mortality, larval mortality, and adult mortality.

Measured: pest or weed control at 200 ppm

Cc1cc(C2=NOC(c3cc(Cl)cc(Cl)c3)(C(F)(F)F)C2)ccc1C(=O)NC1CON(C)C1=O (stereo not drawn) [Compound A01]
≥ 80%: [1] | [2] | [3] | [4] | [5] | [6]

CCN1OCC(NC(=O)c2ccc(C3=NOC(c4cc(Cl)c(Cl)c(Cl)c4)(C(F)(F)F)C3)cc2C)C1=O (stereo not drawn) [Compound A02]
≥ 80%: [1] | [2] | [3] | [4] | [5] | [6]

CCN1OCC(NC(=O)c2ccc(C3=NOC(c4cc(Cl)c(F)c(Cl)c4)(C(F)(F)F)C3)cc2C)C1=O (stereo not drawn) [Compound A04]
≥ 80%: [1] | [2] | [3] | [4] | [5] | [6]

CCN1OCC(NC(=O)c2ccc(C3=NOC(c4cc(Cl)cc(Cl)c4)(C(F)(F)F)C3)cc2C)C1=O (stereo not drawn) [Compound A07]
≥ 80%: [1] | [2] | [3] | [4] | [5] | [6]

CCN1OCC(NC(=O)c2ccc(C3=NOC(c4cc(Cl)cc(Br)c4)(C(F)(F)F)C3)cc2C)C1=O (stereo not drawn) [Compound A10]
≥ 80%: [1] | [2] | [3] | [4] | [5] | [6]

CCN1OCC(NC(=O)c2ccc(C3=NOC(c4cc(Cl)cc(C(F)(F)F)c4)(C(F)(F)F)C3)cc2C)C1=O (stereo not drawn) [Compound A12]
≥ 80%: [1] | [2] | [3] | [4] | [5] | [6]

Cc1cc(C2=NOC(c3cc(Cl)cc(Cl)c3)(C(F)(F)F)C2)ccc1C(=O)NC1CON(CC(F)F)C1=O (stereo not drawn) [Compound A15]
≥ 80%: [1] | [2] | [3] | [4] | [5] | [6]

Cc1cc(C2=NOC(c3cc(Cl)c(Cl)c(Cl)c3)(C(F)(F)F)C2)ccc1C(=O)NC1CON(CC(F)(F)F)C1=O (stereo not drawn) [Compound A16]
≥ 80%: [1] | [2] | [3] | [4] | [5] | [6]

Cc1cc(C2=NOC(c3cc(Cl)c(F)c(Cl)c3)(C(F)(F)F)C2)ccc1C(=O)NC1CON(CC(F)(F)F)C1=O (stereo not drawn) [Compound A20]
≥ 80%: [1] | [2] | [3] | [4] | [5] | [6]

Cc1cc(C2=NOC(c3cc(Cl)cc(Cl)c3)(C(F)(F)F)C2)ccc1C(=O)NC1CON(CC(F)(F)F)C1=O (stereo not drawn) [Compound A22]
≥ 80%: [1] | [2] | [3] | [4] | [5] | [6]

Cc1cc(C2=NOC(c3cc(Cl)cc(Br)c3)(C(F)(F)F)C2)ccc1C(=O)NC1CON(CC(F)(F)F)C1=O (stereo not drawn) [Compound A25]
≥ 80%: [1] | [2] | [3] | [4] | [5] | [6]
